SMILES strings stand for the structures. Bounds are passed on as bounds.

This assay addresses LSD-1 enzyme (Homo sapiens (Human), UniProt O60341).
Procedure: LSD1 Histone Demethylase Biochemical Assay
LANCE LSD1/KDM1A demethylase assay-10 μL of 1 nM LSD-1 enzyme (ENZO BML-SE544-0050) in the assay buffer (50 mM Tris, pH 7.5, 0.01% Tween-20, 25 mM NaCl, 5 mM DTT) were preincubated for 1 hour at 25° C. with 0.8 μL compound/DMSO dotted in black 384 well polystyrene plates. […] After stopping the reactions plates were incubated for 30 minutes and read on a PHERAstar FS plate reader (BMG Labtech).
Turning to `COc1cccc(CN2CCC(CN[C@@H]3C[C@H]3c3ccccc3)(Cc3cccc(C(=O)O)c3)CC2)c1` [Example 59, 3-{[1-(3-methoxybenzyl)-4-({[(1R,2S)-2-phenylcyclopropyl]amino}methyl)piperidin-4-yl]methyl}benzoic acid], the 50% inhibitory concentration (IC50) was below 100 nM.

For the molecule `N#CCc1ccc(CC2(CN[C@@H]3C[C@H]3c3ccccc3)CCN(CC3(C(=O)O)CCC3)CC2)cc1` [Example 54, 1-{[4-[4-(cyanomethyl)benzyl]-4-({[(1R,2S)-2-phenylcyclopropyl]amino}methyl)piperidin-1-yl]methyl}cyclobutanecarboxylic acid], the IC50 is below 100 nM.

For the molecule `COc1ccc(CC2(CN[C@@H]3C[C@H]3c3ccccc3)CCN(CC3(C(=O)O)CC3)CC2)cc1` [Example 98, 1-{[4-(4-methoxybenzyl)-4-({[(1R,2S)-2-phenylcyclopropyl]amino}methyl)piperidin-1-yl]methyl}cyclopropanecarboxylic acid], the IC50 is below 100 nM.

For `Fc1ccc(CN2CC(CN[C@@H]3C[C@H]3c3ccccc3)C2)cc1` (relative stereo) [Example 2, N-{[1-(4-Fluorobenzyl)azetidin-3-yl]methyl}-trans-2-phenylcyclopropanamine], the IC50 was below 100 nM.

For the molecule `COCC1(CN[C@@H]2C[C@H]2c2ccc(F)cc2)CCN(CC2(C(=O)O)CCC2)CC1` [Example 63, 1-{[4-({[(1R,2S)-2-(4-fluorophenyl)cyclopropyl]amino}methyl)-4-(methoxymethyl)piperidin-1-yl]methyl}cyclobutanecarboxylic acid], the IC50 is below 100 nM.

Take `COCC1(CN[C@@H]2C[C@H]2c2ccccc2)CCN(C(=O)[C@H]2CC[C@@H](CO)CC2)CC1` [Example 101, (cis-4-{[4-(methoxymethyl)-4-({[(1R,2S)-2-phenylcyclopropyl]amino}methyl)piperidin-1-yl]carbonyl}cyclohexyl)methanol]: the IC50 was below 100 nM.

On to `COc1ccc(CC2(CN[C@@H]3C[C@H]3c3ccccc3)CCN(CC3(C(=O)O)CC3)CC2)cn1` [Example 69, 1-{[4-[(6-methoxypyridin-3-yl)methyl]-4-({[(1R,2S)-2-phenylcyclopropyl]amino}methyl)piperidin-1-yl]methyl}cyclopropanecarboxylic acid], for which the IC50 was below 100 nM.

`Cn1ccc(C(=O)N2CCC(C)(CN[C@@H]3C[C@H]3c3ccccc3)CC2)n1` [Example 46, (1R,2S)—N-({4-methyl-1-[(1-methyl-1H-pyrazol-3-yl)carbonyl]piperidin-4-yl}methyl)-2-phenylcyclopropanamine]: the IC50 was below 100 nM.

On to `O=S(=O)(c1ccc(OC(F)(F)F)cc1)N1CC(CN[C@@H]2C[C@H]2c2ccccc2)C1` (relative stereo) [Example 30, Trans-2-phenyl-N-[(1-{[4-(trifluoromethoxy)phenyl]sulfonyl}azetidin-3-yl)methyl]cyclopropanamine], for which the IC50 was below 100 nM.

Turning to `N#Cc1ccc(OCC2(CN[C@@H]3C[C@H]3c3ccccc3)CCN(CC3(C(=O)O)CCC3)CC2)c(F)c1` [Example 86, 1-{[4-[(4-cyano-2-fluorophenoxy)methyl]-4-({[(1R,2S)-2-phenylcyclopropyl]amino}methyl)piperidin-1-yl]methyl}cyclobutanecarboxylic acid], the IC50 was below 100 nM.

Regarding `CC1(CN[C@@H]2C[C@H]2c2ccccc2)CCN(Cc2cnc(N)nc2)CC1` [Example 52, 5-{[4-methyl-4-({[(1R,2S)-2-phenylcyclopropyl]amino}methyl)piperidin-1-yl]methyl}pyrimidin-2-amine], the IC50 is below 100 nM.

As to `O=C(O)C1(CN2CCC(CN[C@@H]3C[C@H]3c3ccccc3)(COCc3ccccc3)CC2)CCC1` [Example 73, 1-{[4-[(benzyloxy)methyl]-4-({[(1R,2S)-2-phenylcyclopropyl]amino}methyl)piperidin-1-yl]methyl}cyclobutanecarboxylic acid], the IC50 was below 100 nM.

`CC1(CN[C@@H]2C[C@H]2c2ccccc2)CCN(CC2(C(=O)O)CC2)CC1` [Example 44, 1-{[4-methyl-4-({[(1R,2S)-2-phenylcyclopropyl]amino}methyl)piperidin-1-yl]methyl}cyclopropanecarboxylic acid] registered an IC50 below 100 nM.

The molecule `O=C(O)C1(CN2CCC(CN[C@@H]3C[C@H]3c3ccccc3)(COCC3CCC3)CC2)CCC1` [Example 93, 1-{[4-[(cyclobutylmethoxy)methyl]-4-({[(1R,2S)-2-phenylcyclopropyl]amino}methyl)piperidin-1-yl]methyl}cyclobutanecarboxylic acid] registered an IC50 below 100 nM.

With `COC1CCCN(C(=O)N2CC(CNC3CC3c3ccccc3)C2)C1` (stereo not drawn) [Example 15, N-({1-[(3-Methoxypiperidin-1-yl)carbonyl]azetidin-3-yl}methyl)-trans-2-phenylcyclopropanamine], the IC50 is below 100 nM.

In turn, `COc1cccc(NC(=O)N2CC(CN[C@@H]3C[C@H]3c3ccccc3)C2)c1` (relative stereo) [Example 23, N-(3-Methoxyphenyl)-3-{[(trans-2-phenylcyclopropyl)amino]methyl}azetidine-1-carboxamide] registered an IC50 below 100 nM.

Turning to `COc1ccc(NC(=O)N2CC(CN[C@@H]3C[C@H]3c3ccccc3)C2)cc1` (relative stereo) [Example 22, N-(4-Methoxyphenyl)-3-{[(trans-2-phenylcyclopropyl)amino]methyl}azetidine-1-carboxamide], the IC50 is below 100 nM.

For `O=C(N1CCC2(CC1)CNc1ccc(F)cc12)N1CC(CN[C@@H]2C[C@H]2c2ccccc2)C1` (relative stereo) [Example 18, N-({1-[(5-Fluoro-1,2-dihydro-spiro[indole-3,4′-piperidin]-1′-yl)carbonyl]azetidin-3-yl}methyl)-trans-2-phenylcyclopropanamine], the IC50 is below 100 nM.

In turn, `N#CCc1ccc(CC2(CN[C@@H]3C[C@H]3c3ccccc3)CCN(CC3(C(=O)O)CC3)CC2)cc1` [Example 53, 1-{[4-[4-(cyanomethyl)benzyl]-4-({[(1R,2S)-2-phenylcyclopropyl]amino}methyl)piperidin-1-yl]methyl}cyclopropanecarboxylic acid] had an IC50 below 100 nM.

For `O=C(O)C1(CN2CCC(CN[C@@H]3C[C@H]3c3ccccc3)(COC3CCCCC3)CC2)CC1` [Example 94, 1-{[4-[(cyclohexyloxy)methyl]-4-({[(1R,2S)-2-phenylcyclopropyl]amino}methyl)piperidin-1-yl]methyl}cyclopropanecarboxylic acid], the IC50 is below 100 nM.

`COCC1(CN[C@@H]2C[C@H]2c2ccccc2)CCN(C(=O)N2CC[C@@H](O)C2)CC1` [Example 60, (3R)-1-{[4-(methoxymethyl)-4-({[(1R,2S)-2-phenylcyclopropyl]amino}methyl)piperidin-1-yl]carbonyl}pyrrolidin-3-ol] registered a half-maximal inhibitory concentration (IC50) below 100 nM.

`N#Cc1cccc(OCC2(CN[C@@H]3C[C@H]3c3ccccc3)CCN(CC3(C(=O)O)CC3)CC2)c1` [Example 80, 1-{[4-[(3-cyanophenoxy)methyl]-4-({[(1R,2S)-2-phenylcyclopropyl]amino}methyl)piperidin-1-yl]methyl}cyclopropanecarboxylic acid]: the IC50 is below 100 nM.

`N#Cc1ccc(OCC2(CN[C@@H]3C[C@H]3c3ccccc3)CCN(CC3(C(=O)O)CC3)CC2)c(F)c1` [Example 82, 1-{[4-[(4-cyano-2-fluorophenoxy)methyl]-4-({[(1R,2S)-2-phenylcyclopropyl]amino}methyl)piperidin-1-yl]methyl}cyclopropanecarboxylic acid]: the IC50 was below 100 nM.

`N#CCC1(CN[C@@H]2C[C@H]2c2ccccc2)CCN(Cc2cccc(F)c2)CC1` (relative stereo) [Example 9, (1-(3-Fluorobenzyl)-4-{[(trans-2-phenylcyclopropyl)amino]methyl}piperidin-4-yl)acetonitrile] returned an IC50 below 100 nM.

`O=C(Nc1ccccc1F)N1CC(CN[C@@H]2C[C@H]2c2ccccc2)C1` (relative stereo) [Example 19, N-(2-Fluorophenyl)-3-{[(trans-2-phenylcyclopropyl)amino]methyl}azetidine-1-carboxamide] gave an IC50 below 100 nM.

`COCC1(CN[C@@H]2C[C@H]2c2ccccc2)CCN(C(=O)c2cn(C)cn2)CC1` [Example 39, (1R,2S)—N-({4-(methoxymethyl)-1-[(1-methyl-1H-imidazol-4-yl)carbonyl]piperidin-4-yl}methyl)-2-phenylcyclopropanamine] had an IC50 below 100 nM.

In the case of `N#CC1CCN(C(=O)N2CC(CN[C@@H]3C[C@H]3c3ccccc3)C2)CC1` (relative stereo) [Example 12, 1-[(3-{[(trans-2-Phenylcyclopropyl)amino]methyl}azetidin-1-yl)carbonyl]piperidine-4-carbonitrile], the IC50 was below 100 nM.

In turn, `COCC1(CN[C@@H]2C[C@H]2c2ccccc2)CCN(C(=O)c2ccn(CCO)n2)CC1` [Example 108, 2-(3-{[4-(methoxymethyl)-4-({[(1R,2S)-2-phenylcyclopropyl]amino}methyl)piperidin-1-yl]carbonyl}-1H-pyrazol-1-yl)ethanol] had an IC50 below 100 nM.

For `N#Cc1cccc(OCC2(CN[C@@H]3C[C@H]3c3ccccc3)CCN(CC3(C(=O)O)CCC3)CC2)c1` [Example 84, 1-{[4-[(3-cyanophenoxy)methyl]-4-({[(1R,2S)-2-phenylcyclopropyl]amino}methyl)piperidin-1-yl]methyl}cyclobutanecarboxylic acid], the IC50 was below 100 nM.

The molecule `N#Cc1cccc(CN2CC(CN[C@@H]3C[C@H]3c3ccccc3)C2)c1` (relative stereo) [Example 7, 3-[(3-{[(trans-2-Phenylcyclopropyl)amino]methyl}azetidin-1-yl)methyl]benzonitrile] had a half-maximal inhibitory concentration (IC50) below 100 nM.

Take `COCC1(CN[C@@H]2C[C@H]2c2ccccc2)CCN(C(=O)[C@@H]2CCCN2C)CC1` [Example 38, (1R,2S)—N-[(4-(methoxymethyl)-1-{[(2S)-1-methylpyrrolidin-2-yl]carbonyl}piperidin-4-yl)methyl]-2-phenylcyclopropanamine]: the IC50 is below 100 nM.

The molecule `N#Cc1ccc(CC2(CN[C@@H]3C[C@H]3c3ccccc3)CCN(CC3(C(=O)O)CC3)CC2)cc1` [Example 55, 1-{[4-(4-cyanobenzyl)-4-({[(1R,2S)-2-phenylcyclopropyl]amino}methyl)piperidin-1-yl]methyl}cyclopropanecarboxylic acid] returned an IC50 below 100 nM.

For orientation: IC50 means the concentration needed to halve the response being measured. Lower therefore signals higher potency.

Source of the values: patent publication US9670210B2, “Cyclopropylamines as LSD1 inhibitors” (Incyte Corporation, priority 2014, dated 2017).
